≈ marks a conversion by molar mass, not a printed value. Like-named read-outs stand apart in the source and are kept apart here.
Columns and labels:
[1] = test system: Streptococcus pneumoniae (Chester, ATCC49619); experiment: Broth microdilution MIC assay, Streptococcus pneumoniae; assay type: cell-based; conditions: for Antibacterial activity Streptococcus pneumoniae: MIC class score, MIC100, broth microdilution; for MIC: Streptococcus pneumoniae, ATCC49619, read-out: Antibacterial activity, SP (Streptococcus pneumoniae), MIC class
[2] = test system: Enterococcus faecalis (ATCC29212); experiment: Broth microdilution MIC assay, Enterococcus faecalis; assay type: cell-based; conditions: read-out: Antibacterial activity, EFs (Enterococcus faecalis), MIC class
[3] = test system: vancomycin-resistant Enterococcus faecium (ATCC51559); experiment: microbe, parasite or virus in culture; assay type: cell-based
[4] = test system: Staphylococcus aureus MRSA (COL); experiment: Broth microdilution MIC assay, Staphylococcus aureus MRSA (COL); assay type: cell-based; conditions: for Antibacterial activity Staphylococcus aureus (MRSA): MIC class score, MIC100, broth microdilution, COL strain; for MIC: Staphylococcus aureus, MRSA, read-out: Antibacterial activity, MRSA (Staphylococcus aureus MRSA), MIC class
[5] = test system: Staphylococcus aureus MSSA (Newman); experiment: Broth microdilution MIC assay, Staphylococcus aureus MSSA (Newman); assay type: cell-based; conditions: for Antibacterial activity Staphylococcus aureus (MSSA): MIC class score, MIC100, broth microdilution, Newman strain; for MIC: Staphylococcus aureus
[6] = test system: vancomycin-resistant Enterococcus faecalis (ATCC51575); experiment: microbe, parasite or virus in culture; assay type: cell-based; conditions: ATCC51575; vancomycin-resistant Enterococcus faecalis; read-out: Antibacterial activity, VREFs (vancomycin-resistant EFs), MIC class
[7] = test system: Staphylococcus epidermidis (PCI 1200, ATCC12228); experiment: Broth microdilution MIC assay, Staphylococcus epidermidis; assay type: cell-based; conditions: read-out: Antibacterial activity, SE (Staphylococcus epidermidis), MIC class
[8] = test system: Enterococcus faecium (AGR15, ATCCBAA-2127); experiment: Broth microdilution MIC assay, Enterococcus faecium; assay type: cell-based; conditions: ATCCBAA2127, read-out: Antibacterial activity, EFm (Enterococcus faecium), MIC class
[9] = test system: daptomycin-resistant Staphylococcus aureus (from MRSA COL); experiment: Broth microdilution MIC assay, daptomycin-resistant MRSA; assay type: cell-based; conditions: 24 h, read-out: Antibacterial activity, MRSA strains with additional resistance, D (daptomycin), MIC class
[10] = test system: Mycobacterium smegmatis (mc(2)155); experiment: Broth microdilution MIC assay, Mycobacterium smegmatis
[11] = read-out: Antibacterial activity, MSSA (Staphylococcus aureus MSSA), MIC class
[12] = ATCC51559, vancomycin-resistant Enterococcus faecium, read-out: Antibacterial activity, VREFm (vancomycin-resistant EFm), MIC class
[13] = read-out: Antibacterial activity Staphylococcus aureus (MSSA)

Cc1[nH]c(-c2ccc(-c3cccc(C(F)(F)F)c3)o2)nc1-c1ccc(F)cc1 [compound 38]
Antibacterial activity Streptococcus pneumoniae [1]: 3 (MIC100 of 2-5 μg/ml)
MIC [1]: 2 to 5 µg/mL (≈ 5.18 to 12.9 µM)
MIC [2]: 20 to 50 µg/mL (≈ 51.8 to 129 µM)
MIC ([3]; Enterococcus faecium, ATCC51559, read-out: Antibacterial activity, VREFm (vancomycin-resistant EFm), MIC class): 20 to 50 µg/mL (≈ 51.8 to 129 µM)

Cc1[nH]c(-c2cc(C)n(-c3cccc(C(F)(F)F)c3)c2C)nc1-c1ccccc1 [compound 36]
MIC [1]: 2 to 5 µg/mL (≈ 5.06 to 12.6 µM)
Antibacterial activity Staphylococcus aureus (MRSA) [4]: 2 (MIC100 of 11-20 μg/ml)

FC(F)(F)c1ccccc1-c1ccc(-c2nc(Cl)c(-c3ccccc3)[nH]2)o1 [compound 65]
MIC [1]: < 1 µg/mL
Antibacterial activity Staphylococcus aureus (MSSA) [5]: 2 (MIC100 of 11-20 μg/ml)
MIC [5, 11]: 11 to 20 µg/mL (≈ 28.3 to 51.4 µM)

Cc1nc(-c2ccc(-c3ccc(Cl)c(OC(F)(F)F)c3)o2)[nH]c1-c1ccc(F)cc1 [compound 43]
Antibacterial activity Staphylococcus aureus (MRSA) [4]: 2 (MIC100 of 11-20 μg/ml)
MIC [2]: 20 to 50 µg/mL (≈ 45.8 to 114 µM)

Fc1ccc(-c2ccc(-c3nc4ccccc4[nH]3)o2)cc1 [compound 121]
Antibacterial activity Streptococcus pneumoniae [1]: in- active
Antibacterial activity Staphylococcus aureus (MRSA) [4]: in- active

Cc1nc(-c2ccc(-c3ccc(Cl)cc3Cl)o2)[nH]c1-c1ccc(F)cc1 [compound 16]
MIC [1]: 2 to 5 µg/mL (≈ 5.16 to 12.9 µM)
MIC [2]: 20 to 50 µg/mL (≈ 51.6 to 129 µM)
MIC [3, 12]: 20 to 50 µg/mL (≈ 51.6 to 129 µM)
MIC [6]: 20 to 50 µg/mL (≈ 51.6 to 129 µM)

Cc1nc(-c2ccc(-c3cccc(O)c3)o2)[nH]c1-c1ccccc1 [compound 145]
Antibacterial activity Streptococcus pneumoniae [1]: 2 (MIC100 of 6-10 μg/ml)
MIC [5, 13]: 11 to 20 µg/mL (≈ 34.8 to 63.2 µM)

Cc1nc(-c2ccc(-c3ccc(Cl)c(OC(F)(F)F)c3)o2)[nH]c1-c1ccccc1 [compound 41]
MIC [7]: 11 to 20 µg/mL (≈ 26.3 to 47.8 µM)
MIC [2]: 20 to 50 µg/mL (≈ 47.8 to 119 µM)
MIC [3, 12]: 20 to 50 µg/mL (≈ 47.8 to 119 µM)
MIC [6]: 20 to 50 µg/mL (≈ 47.8 to 119 µM)

Cc1[nH]c(-c2ccc(-c3ccc(Cl)c(C(F)(F)F)c3)o2)nc1-c1ccccc1 [compound 39]
MIC [1]: < 1 µg/mL
MIC [2]: 20 to 50 µg/mL (≈ 49.7 to 124 µM)
MIC [3, 12]: 20 to 50 µg/mL (≈ 49.7 to 124 µM)
MIC [6]: 20 to 50 µg/mL (≈ 49.7 to 124 µM)

Cc1nc(-c2ccc(-c3ccc(O)cc3)o2)[nH]c1-c1ccccc1 [compound 150]
Antibacterial activity Streptococcus pneumoniae [1]: 2 (MIC100 of 6-10 μg/ml)
MIC [5, 13]: 11 to 20 µg/mL (≈ 34.8 to 63.2 µM)

Cc1nc(-c2ccc(-c3ccccc3C(F)(F)F)o2)[nH]c1-c1cccc(Cl)c1 [compound 22]
Antibacterial activity Streptococcus pneumoniae [1]: 3 (MIC100 of 2-5 μg/ml)
MIC [1]: 2 to 5 µg/mL (≈ 4.97 to 12.4 µM)
Antibacterial activity Staphylococcus aureus (MSSA) [5]: 2 (MIC100 of 11-20 μg/ml)
MIC [5, 11]: 11 to 20 µg/mL (≈ 27.3 to 49.7 µM)

Cc1[nH]c(-c2ccc(-c3ccccc3Cl)o2)nc1-c1ccccc1 [compound 3]
MIC [1]: < 1 µg/mL
MIC [4]: 11 to 20 µg/mL (≈ 32.9 to 59.7 µM)
MIC [7]: 11 to 20 µg/mL (≈ 32.9 to 59.7 µM)

Cc1nc(-c2ccc(-c3ccccc3OC(F)(F)F)o2)[nH]c1-c1ccc(Br)cc1 [compound 29]
Antibacterial activity Streptococcus pneumoniae [1]: 3 (MIC100 of 2-5 μg/ml)
MIC [1]: 2 to 5 µg/mL (≈ 4.32 to 10.8 µM)
Antibacterial activity Staphylococcus aureus (MRSA) [4]: 2 (MIC100 of 11-20 μg/ml)

Cc1nc(-c2ccc(-c3ccc(O)cc3F)o2)[nH]c1-c1ccc(O)cc1 [compound 120]
Antibacterial activity Staphylococcus aureus (MSSA) [5]: 2 (MIC100 of 11-20 μg/ml)

Cc1nc(-c2ccc(-c3cccc(Cl)c3)o2)[nH]c1-c1ccccc1 [compound 4]
MIC [1]: < 1 µg/mL
MIC [4]: 11 to 20 µg/mL (≈ 32.9 to 59.7 µM)

Cc1nc(-c2ccc(-c3ccccc3O)o2)[nH]c1-c1ccccc1 [compound 149]
MIC [5, 13]: 11 to 20 µg/mL (≈ 34.8 to 63.2 µM)

Cc1[nH]c(-c2ccc(-c3ccccc3OC(F)(F)F)o2)nc1-c1ccc(F)cc1 [compound 23, 4-(4-Fluoro-phenyl)-5-methyl-2-[5-(2-trifluoromethoxy-phenyl)-furan-2-yl]-1H-imidazole]
MIC [2]: 20 to 50 µg/mL (≈ 49.7 to 124 µM)
MIC [8]: 20 to 50 µg/mL (≈ 49.7 to 124 µM)
MIC [3, 12]: 20 to 50 µg/mL (≈ 49.7 to 124 µM)
MIC [6]: 20 to 50 µg/mL (≈ 49.7 to 124 µM)

CCCc1nc(-c2ccc(-c3ccccc3N(C)C)o2)[nH]c1C [compound 98]
Antibacterial activity Staphylococcus aureus (MRSA) [4]: 3 (MIC100 of 3-10 μg/ml)

Cc1[nH]c(-c2ccc(-c3ccc(Cl)c(C(F)(F)F)c3)o2)nc1-c1ccc(F)cc1 [compound 42]
MIC [2]: 11 to 20 µg/mL (≈ 26.1 to 47.5 µM)
MIC [8]: 20 to 50 µg/mL (≈ 47.5 to 119 µM)
MIC [3, 12]: 20 to 50 µg/mL (≈ 47.5 to 119 µM)
MIC [6]: 11 to 20 µg/mL (≈ 26.1 to 47.5 µM)

Cc1nc(-c2ccc(-c3ccccc3F)o2)[nH]c1-c1ccc(O)cc1 [compound 77]
Antibacterial activity Streptococcus pneumoniae [1]: 3 (MIC100 of 2-5 μg/ml)
Antibacterial activity Staphylococcus aureus (MSSA) [5]: 3 (MIC100 of 3-10 μg/ml)

FC(F)(F)Oc1ccccc1-c1ccc(-c2nc(-c3ccccc3Cl)c[nH]2)o1 [compound 67]
MIC [1]: 2 to 5 µg/mL (≈ 4.94 to 12.4 µM)
MIC [7]: 11 to 20 µg/mL (≈ 27.2 to 49.4 µM)

Cc1[nH]c(-c2ccc(-c3ccc(OC(F)(F)F)c(Cl)c3)o2)nc1-c1ccc(Cl)cc1 [compound 50]
Antibacterial activity Streptococcus pneumoniae [1]: 3 (MIC100 of 2-5 μg/ml)
MIC [1]: 2 to 5 µg/mL (≈ 4.41 to 11 µM)
MIC [4]: 11 to 20 µg/mL (≈ 24.3 to 44.1 µM)

Cc1[nH]c(-c2ccc(-c3cccc(Cl)c3Cl)o2)nc1-c1ccccc1 [compound 2]
Antibacterial activity Streptococcus pneumoniae [1]: 3 (MIC100 of 2-5 μg/ml)
MIC [6]: 20 to 50 µg/mL (≈ 54.2 to 135 µM)
MIC [9]: 3 to 10 µg/mL (≈ 8.12 to 27.1 µM)

FC(F)(F)c1ccccc1-c1ccc(-c2ncc(-c3ccccc3)[nH]2)o1 [compound 75]
Antibacterial activity Streptococcus pneumoniae [1]: 3 (MIC100 of 2-5 μg/ml)
MIC [5, 13]: 11 to 20 µg/mL (≈ 31 to 56.4 µM)

Cc1nc(-c2ccc(-c3ccc4cc(O)ccc4c3)o2)[nH]c1-c1ccccc1 [compound 154]
Antibacterial activity Streptococcus pneumoniae [1]: 2 (MIC100 of 6-10 μg/ml)
MIC [5, 13]: 11 to 20 µg/mL (≈ 30 to 54.6 µM)

Cc1[nH]c(-c2ccc(-c3ccc(OC(F)(F)F)cc3)o2)nc1-c1ccc(Cl)cc1 [compound 48]
MIC [7]: 11 to 20 µg/mL (≈ 26.3 to 47.8 µM)
MIC [2]: 20 to 50 µg/mL (≈ 47.8 to 119 µM)
MIC [3, 12]: 20 to 50 µg/mL (≈ 47.8 to 119 µM)
MIC [6]: 20 to 50 µg/mL (≈ 47.8 to 119 µM)

Cc1nc(-c2ccc(-c3cccc(OC(F)(F)F)c3)o2)[nH]c1-c1ccc(F)cc1 [compound 37]
MIC [1]: < 1 µg/mL
MIC [2]: 20 to 50 µg/mL (≈ 49.7 to 124 µM)
MIC [3, 12]: 20 to 50 µg/mL (≈ 49.7 to 124 µM)
MIC [6]: 20 to 50 µg/mL (≈ 49.7 to 124 µM)
Antibacterial activity, MS (Mycobacterium smegmatis), MIC class [10]: 2 (MIC100 of 11-20 μg/ml)

CCCc1nc(-c2sc(-c3ccccc3C(F)(F)F)c3c2OCCO3)[nH]c1C [Compound 114]
Antibacterial activity Staphylococcus aureus (MRSA) [4]: 3 (MIC100 of 3-10 μg/ml)

Cc1[nH]c(-c2ccc(-c3ccccc3C(F)(F)F)o2)nc1-c1ccccc1 [compound 17]
Antibacterial activity Streptococcus pneumoniae [1]: 3 (MIC100 of 2-5 μg/ml)
MIC [1]: 2 to 5 µg/mL (≈ 5.43 to 13.6 µM)
MIC [8]: 20 to 50 µg/mL (≈ 54.3 to 136 µM)

Cc1[nH]c(-c2ccn(-c3ccccc3C(F)(F)F)c2)nc1-c1ccccc1 [compound 33]
MIC [1]: 6 to 10 µg/mL (≈ 16.3 to 27.2 µM)
MIC [7]: 11 to 20 µg/mL (≈ 29.9 to 54.4 µM)

Cc1ccccc1-c1cnc(-c2ccc(-c3ccccc3C(F)(F)F)o2)[nH]1 [compound 69]
MIC [1]: < 1 µg/mL
MIC [5, 11]: 11 to 20 µg/mL (≈ 29.9 to 54.3 µM)
Antibacterial activity Staphylococcus aureus (MRSA) [4]: 2 (MIC100 of 11-20 μg/ml)
MIC [3, 12]: 20 to 50 µg/mL (≈ 54.3 to 136 µM)
Antibacterial activity, MS (Mycobacterium smegmatis), MIC class [10]: 2 (MIC100 of 11-20 μg/ml)

Fc1ccc(-c2ccc(-c3nc4ccccc4[nH]3)o2)c(F)c1 [compound 122]
Antibacterial activity Streptococcus pneumoniae [1]: in- active
Antibacterial activity Staphylococcus aureus (MRSA) [4]: in- active

Cc1[nH]c(-c2ccc(-c3ccc(C(F)(F)F)cc3)s2)nc1-c1ccccc1 [compound 46]
Antibacterial activity Streptococcus pneumoniae [1]: 3 (MIC100 of 2-5 μg/ml)
Antibacterial activity Staphylococcus aureus (MSSA) [5]: 2 (MIC100 of 11-20 μg/ml)
MIC [5, 11]: 11 to 20 µg/mL (≈ 28.6 to 52 µM)

CCCc1[nH]c(-c2ccc(-c3cccc4[nH]ccc34)o2)nc1C [compound 108]
Antibacterial activity Staphylococcus aureus (MRSA) [4]: 2 (MIC100 of 11-20 μg/ml)

CCCc1nc(-c2ccc(-c3c(C)cccc3C)o2)[nH]c1C [compound 103]
Antibacterial activity Staphylococcus aureus (MRSA) [4]: 3 (MIC100 of 3-10 μg/ml)

Cc1[nH]c(-c2ccc(-c3ccccc3F)s2)nc1-c1ccccc1 [compound 15]
Antibacterial activity, MS (Mycobacterium smegmatis), MIC class [10]: 2 (MIC100 of 11-20 μg/ml)
